Data reported in ChEMBL document CHEMBL2010759, “Scabronine M, a novel inhibitor of NGF-induced neurite outgrowth from PC12 cells from the fungus Sarcodon scabrosus” (Bioorg Med Chem Lett, 2012).
Active and inactive are the calls of the source. No cut-off for these calls is given here.

Experiments:
PC-12 [1] = experiment: Inhibition of NGF-mediated neurite outgrowth in rat PC12 cells after 24 hrs by light microscopy; assay type: functional, cell-based
PC-12 [2] = experiment: Increase of NGF-mediated neurite outgrowth in rat PC12 cells at 1 uM after 24 hrs by light microscopy (reference value: 21.06 +/- 1.27 %); assay type: functional
PC-12 [3] = experiment: Inhibition of NGF-mediated neurite outgrowth in rat PC12 cells at 10 uM after 24 hrs by light microscopy (reference value: 21.06 +/- 1.27 %); assay type: functional; details: PC-12, 24 h
PC-12 [4] = experiment: Inhibition of NGF-mediated neurite outgrowth in rat PC12 cells at 50 uM after 24 hrs by light microscopy (reference value: 21.06 +/- 1.27 %); assay type: functional; details: PC-12, 24 h
PC-12 [5] = experiment: Inhibition of NGF-mediated neurite outgrowth in rat PC12 cells at 100 uM after 24 hrs by light microscopy (reference value: 21.06 +/- 1.27 %); assay type: functional; details: PC-12, 24 h
PC-12 [6] = experiment: Increase of NGF-induced neuronal differentiation in rat PC12 cells up to 100 uM after 24 hrs by light microscopy; assay type: functional, cell-based
PC-12 [7] = experiment: Cytotoxicity against rat PC12 cells at 100 uM after 2 days by MTT assay; assay type: cell-based; details: pc-12, 48 h
[8] = molecular target: T1, Mitogen-activated protein kinase 1 and 3 (ERK2 and ERK1) (Rattus norvegicus) (UniProt P63086+P21708); experiment: Inhibition of NGF-induced ERK1/2 phosphorylation in rat PC12 cells at 1 uM after 15 mins by Western blotting analysis relative to beta-actin level (reference value: 0.275 +/- 0.005); assay type: cell-based; details: PC-12
[9] = molecular target: T1, Mitogen-activated protein kinase 1 and 3 (ERK2 and ERK1) (Rattus norvegicus); experiment: Inhibition of NGF-induced ERK1/2 phosphorylation in rat PC12 cells at 10 uM after 15 mins by Western blotting analysis relative to beta-actin level (reference value: 0.275 +/- 0.005); assay type: cell-based; details: PC-12
[10] = molecular target: T1, Mitogen-activated protein kinase 1 and 3 (ERK2 and ERK1) (Rattus norvegicus); experiment: Inhibition of NGF-induced ERK1/2 phosphorylation in rat PC12 cells at 50 uM after 15 mins by Western blotting analysis relative to beta-actin level (reference value: 0.275 +/- 0.005); assay type: cell-based; details: PC-12
[11] = molecular target: T1, Mitogen-activated protein kinase 1 and 3 (ERK2 and ERK1) (Rattus norvegicus); experiment: Inhibition of NGF-induced ERK1/2 phosphorylation in rat PC12 cells after 15 mins by Western blotting analysis relative to beta-actin level; assay type: cell-based; details: PC-12
[12] = molecular target: High affinity nerve growth factor receptor (Rattus norvegicus) (UniProt P35739); experiment: Inhibition of NGF-induced TrkA receptor phosphorylation in rat PC12 cells at 1 uM after 15 mins by ELISA relative to control; assay type: cell-based; details: PC-12
[13] = molecular target: High affinity nerve growth factor receptor (Rattus norvegicus) (UniProt P35739); experiment: Inhibition of NGF-induced TrkA receptor phosphorylation in rat PC12 cells at 10 uM after 15 mins by ELISA relative to control; assay type: cell-based; details: PC-12
[14] = molecular target: High affinity nerve growth factor receptor (Rattus norvegicus) (UniProt P35739); experiment: Inhibition of NGF-induced TrkA receptor phosphorylation in rat PC12 cells at 50 uM after 15 mins by ELISA relative to control; assay type: cell-based; details: PC-12
[15] = molecular target: High affinity nerve growth factor receptor (Rattus norvegicus) (UniProt P35739); experiment: Inhibition of NGF-induced TrkA receptor phosphorylation in rat PC12 cells after 15 mins by ELISA relative to control; assay type: cell-based; details: PC-12
PC-12 [16] = experiment: Increase of NGF-mediated neurite outgrowth in rat PC12 cells after 24 hrs by light microscopy; assay type: functional, cell-based

Chain of High affinity nerve growth factor receptor (Rattus norvegicus) (P35739 whole entry): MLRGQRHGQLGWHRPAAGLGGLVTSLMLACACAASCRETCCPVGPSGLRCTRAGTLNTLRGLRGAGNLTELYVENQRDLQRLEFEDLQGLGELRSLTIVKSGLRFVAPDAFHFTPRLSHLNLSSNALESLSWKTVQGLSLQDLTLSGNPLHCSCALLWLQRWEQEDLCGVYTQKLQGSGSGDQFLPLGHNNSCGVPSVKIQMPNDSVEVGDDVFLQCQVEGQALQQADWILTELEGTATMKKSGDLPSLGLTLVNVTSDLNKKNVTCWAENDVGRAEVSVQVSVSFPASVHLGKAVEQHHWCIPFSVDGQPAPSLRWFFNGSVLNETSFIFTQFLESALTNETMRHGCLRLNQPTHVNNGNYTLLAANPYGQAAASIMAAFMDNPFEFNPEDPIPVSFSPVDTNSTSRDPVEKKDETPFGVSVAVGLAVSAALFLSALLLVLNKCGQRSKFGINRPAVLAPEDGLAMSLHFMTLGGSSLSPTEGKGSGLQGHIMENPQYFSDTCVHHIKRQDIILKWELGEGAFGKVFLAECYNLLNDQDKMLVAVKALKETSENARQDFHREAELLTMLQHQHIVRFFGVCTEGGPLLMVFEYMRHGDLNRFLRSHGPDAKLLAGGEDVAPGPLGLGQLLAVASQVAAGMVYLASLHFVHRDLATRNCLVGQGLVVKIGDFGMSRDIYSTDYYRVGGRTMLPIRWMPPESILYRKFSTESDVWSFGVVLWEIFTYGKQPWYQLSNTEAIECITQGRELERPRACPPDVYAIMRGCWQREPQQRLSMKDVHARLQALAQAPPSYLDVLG
T1 sequence (P21708 whole entry, looked up): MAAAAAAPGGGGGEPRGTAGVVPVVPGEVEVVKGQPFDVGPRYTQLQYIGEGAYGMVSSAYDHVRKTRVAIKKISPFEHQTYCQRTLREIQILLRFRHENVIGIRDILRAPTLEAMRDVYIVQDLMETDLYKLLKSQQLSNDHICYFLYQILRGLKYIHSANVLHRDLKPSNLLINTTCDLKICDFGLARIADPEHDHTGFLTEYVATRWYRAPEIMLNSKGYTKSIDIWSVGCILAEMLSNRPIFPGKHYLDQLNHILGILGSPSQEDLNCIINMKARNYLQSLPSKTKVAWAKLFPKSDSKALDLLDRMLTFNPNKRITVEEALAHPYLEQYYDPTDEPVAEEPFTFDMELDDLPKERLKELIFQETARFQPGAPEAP
T1 sequence (P63086 whole entry, looked up): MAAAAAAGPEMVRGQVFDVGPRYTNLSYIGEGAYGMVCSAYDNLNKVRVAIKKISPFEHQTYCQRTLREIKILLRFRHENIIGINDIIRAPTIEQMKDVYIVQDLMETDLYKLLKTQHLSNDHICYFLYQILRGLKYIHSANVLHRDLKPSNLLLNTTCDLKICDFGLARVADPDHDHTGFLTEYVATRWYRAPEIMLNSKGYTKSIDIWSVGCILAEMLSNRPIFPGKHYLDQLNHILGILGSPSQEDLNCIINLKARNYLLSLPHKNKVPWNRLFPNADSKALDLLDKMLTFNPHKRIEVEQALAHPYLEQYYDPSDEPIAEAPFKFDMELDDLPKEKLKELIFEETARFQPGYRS

CC(C)[C@@H](C)/C=C/[C@@H](C)[C@H]1CC[C@H]2C3=C[C@@H](O)[C@@]4(O)C[C@@H](O[C@@H]5O[C@H](CO)[C@@H](O)[C@H](O)[C@H]5O)CC[C@]4(C)[C@H]3CC[C@]12C
inhibition (PC-12 [1]): inactive

C[C@H](CO)[C@]12CC[C@]3(C)CC[C@@]4(C)C(=O)CC(C=O)=CC[C@@H]4[C@@]31O2 (relative stereo) [SCABRONINE M]
inhibition (PC-12 [1]): Dose-dependent effect
Activity (PC-12 [2]): 23.22%
neurite-bearing cells at 10 µM (PC-12 [3]): 9.15%
neurite-bearing cells at 50 µM (PC-12 [4]): 1.6%
neurite-bearing cells at 100 µM (PC-12 [5]): 0.1%
Activity (PC-12 [6]): inactive
Activity (PC-12 [7]): Non-toxic
Ratio [8]: 0.26
Ratio [9]: 0.24
Ratio [10]: 0.21
inhibition [11]: Dose-dependent effect
fold change (FC) [12]: 1.61
fold change (FC) [13]: 1.4
fold change (FC) [14]: 1.34
inhibition [15]: Dose-dependent effect

CC(C)[C@@H](C)/C=C/[C@@H](C)[C@H]1CC[C@H]2C3=CC(=O)[C@@]4(O)C[C@@H](O)CC[C@]4(C)[C@@]3(O)CC[C@]12C
inhibition (PC-12 [1]): inactive

CC(C)[C@@H](C)/C=C/[C@@H](C)[C@H]1CC[C@H]2C3=CC[C@H]4C[C@@H](O)CC[C@]4(C)[C@H]3CC[C@]12C
inhibition (PC-12 [1]): inactive

CC(C)[C@@H](C)/C=C/[C@@H](C)[C@H]1CC[C@H]2C3=CC=C4C[C@@H](O)CC[C@]4(C)[C@H]3CC[C@]12C
inhibition (PC-12 [1]): inactive

CC(C)[C@@H](C)/C=C/[C@@H](C)[C@H]1CC[C@@H]2[C@]1(C)CC[C@H]1[C@]23C=C[C@]2(C[C@@H](O)CC[C@]12C)OO3
inhibition (PC-12 [1]): inactive

CO[C@@H]1C=C2[C@@H]3CC[C@H]([C@H](C)/C=C/[C@H](C)C(C)C)[C@@]3(C)CC[C@]2(O)[C@@]2(C)CC[C@H](O)C[C@]12O
inhibition (PC-12 [1]): inactive

CC(C)[C@@H](C)/C=C/[C@@H](C)[C@H]1CC[C@H]2C3=C[C@@H](O)[C@@]4(O)C[C@@H](O)CC[C@]4(C)[C@H]3CC[C@]12C
inhibition (PC-12 [1]): inactive

C[C@H](CO)C1=C2[C@H]3CC=C(C=O)CC(=O)[C@]3(C)CC[C@@]2(C)CC1
inhibition (PC-12 [1]): Active
Activity (PC-12 [16]): Active

CC(C)[C@@H](C)/C=C/[C@@H](C)[C@H]1CC[C@@H]2[C@]1(C)CC[C@H]1[C@]23C=C[C@]2(C[C@@H](O[C@@H]4O[C@H](CO)[C@@H](O)[C@H](O)[C@H]4O)CC[C@]12C)OO3
inhibition (PC-12 [1]): inactive

CCCCCCCCCCCCCCC[C@@H](O)C(=O)N[C@@H](CO[C@@H]1O[C@H](CO)[C@@H](O)[C@H](O)[C@H]1O)[C@H](O)/C=C/CC/C=C(\C)CCCCCCCCC
inhibition (PC-12 [1]): inactive

C[C@H](CO)C1=C2C3=CC=C(C=O)C[C@H](O)[C@]3(C)CC[C@@]2(CO)CC1
inhibition (PC-12 [1]): inactive
